# Key:
# Format in all cases: cell-based, human
# PDE4B = PDE4B mRNA expression (Q-PCR) in BEAS-2B cells stimulated with NTHi; details: for PDE4B mRNA expression: BEAS-2B, relative to control
# Procedure: Bacterial strains and culture condition. Clinical isolates of NTHi strain 12 were used in this study (Ishinaga et al., EMBO J., 26(4):1150-1162, 2007). Bacteria were grown on chocolate agar plates at 37° C. in an atmosphere of 5% CO2 overnight and subsequently inoculated in brain heart infusion (BHI) broth supplemented with 3.5 μg/mL NAD and hemoglobin (BD Biosciences). After overnight incubation, the bacteria were subcultured into fresh broth and the log phase bacteria, monitored by measurement of optical density (OD) value, were washed and suspended in DMEM for in vitro cell experiments and in isotonic saline for in vivo animal experiments. For all in vitro experiments except the dose dependent experiment, NTHi was treated at multiplicity of infection (MOI) of 50.
# Cell culture. All media described below were supplemented with 10% fetal bovine serum (Sigma-Aldrich). Human bronchial epithelial BEAS-2B cells were maintained in RPMI medium (Life Technologies) (ATCC® CRL-9609™). Human primary bronchial epithelial NHBE (Lonza) cells were maintained in bronchial epithelial growth media (BEGM) supplemented with BEGM SingleQuots (Jono et al., J. Biol. Chem. 277(47):45547-45557, 2002). BEAS-2B cells stably expressing human PDE4B2 (PDE4B2-stable cells) were obtained by plasmid transfection following Geneticin selection (300 μg/mL). Cells were cultured in a humidified atmosphere of 5% CO2 at 37° C.
# [1] = test system: CCL5, CCL7, CXCL10 and CXCL11; experiment: NTHi-induced chemokine expression in PDE4B2-stable cells
# p65 or PKA-Cβ = experiment: Nuclear expression level of p65 or PKA-Cβ in BEAS-2B cells
# Procedure: Subcellular fractionation. Cells were washed twice and […] with ice cold PBS and centrifuged at 3,000×g for 5 min. The cells were then suspended with Buffer A (10 mM HEPES at pH7.4, 10 mM KCl, 0.1 mM EDTA, 0.1 mM EGTA, 1 mM DTT, supplemented with 1 mM Na3VO4 and PIC) and incubated on ice for 10 min (Schreiber et al., Nucleic Acids Res. 17(15):6419, 1989). The cells were lysed by adding NP40 (0.5%) and vortexing for 15 sec. then centrifuged at 3,000×g for 5 min before the supernatants were removed (cytosol fraction). Precipitates were resuspended in Buffer B (20 mM HEPES at pH7.5, 5 mM NaCl, 1 mM EDTA, […], 1 mM DTT, supplemented with 1 mM Na3VO4 and PIC) and incubated on ice for 10 min. before vortexing and centrifuging at 16,000×g for 15 min to recover the supernatants (nuclear fraction). Western blot. Whole-cell extracts and mouse lung tissue extracts were recovered with lysis buffer (50 mM Tris-HCl at pH7.4, 1% NP40, 0.25% deoxycholate, 150 mM NaCl, 1 mM EDTA, 1 mM NaF, supplemented with 1 mM Na3VO4 and PIC). For PDE4B protein, cell extracts were recovered with Buffer A as described above. Cell or tissue extracts were separated on 8% SDS-PAGE gels and transferred to polyvinylidene difluoride (PVDF) membrane (GE Healthcare Life Sciences). The membrane was blocked with a solution of TBS containing 0.1% Tween 20 (TBS-T) and 5% non-fat dry milk. […]
smiles,measurement,setting,value
O=C(Nc1c(Cl)cncc1Cl)c1ccc(OC(F)F)c(OCC2CC2)c1 [roflumilast],PDE4B expression at the mRNA level,"PDE4B; BEAS-2B cells, roflumilast with NTHi, Q-PCR, dose-dependent",synergized with NTHi to up-regulate PDE4B expression
same,PDE4B mRNA expression,"PDE4B; Rof 0.1 μM 1 h, then 1.5-hour NTHi at MOI of 25, 50, and 100",increased
same,PDE4B mRNA expression,"PDE4B; Rof 0.01, 0.1, and 1 μM 1 h, then 1.5-hour NTHi",increased
same,"NTHi-induced expression of CCL5, CCL7, CXCL10 and CXCL11 (Group A-chemokines)",[1]; highest concentration tested (10 μM),unable to fully inhibit
same,NTHi-induced expression of CXCL10 and CXCL11,[1]; lower dose of roflumilast (<1 μM),slightly enhanced
same,nuclear expression level of p65 or PKA-Cβ,p65 or PKA-Cβ,did not affect
